The values that follow come from patent US20220211477A1, “SURGICAL SYSTEM AND METHODS OF USE” (priority 2021, published 2022).

One assay has as its system fibrinolysis. The experiment in a line: prevention / reversal of fibrinolysis. The conditions noted are these: one tenth of the doses used in the non-GLP acute porcine study.
A further assay relates to myofibroblast formation. Particulars: capsular contracture with breast implants, Ajmal et al. (2003); cited from earlier work.

Take `NC[C@H]1CC[C@H](C(=O)O)CC1` [tranexamic acid, trans-4-(aminomethyl)cyclohexanecarboxylic acid]: in the assay with fibrinolysis, the “effect in reversing fibrinolysis” value was “effective in reversing fibrinolysis”.
On to `O=S(=O)([O-])CCS.[Na+]` [MESNA, sodium 2-mercaptoethane sulfonate], for which the myofibroblast formation entry in the assay on myofibroblast formation was “diminish myofibroblast formation”.
